# In patent US20110213026A1, “EXTRACTS WITH LIVER-X-RECEPTOR MODULATORS, COMPOUNDS AND THEIR USE ESPECIALLY IN WEIGHT CONTROL” (INTERMED DISCOVERY GMBH, priority 2007, published 2011):
# Key:
# [1] = molecular target: T1, LXR ligand binding domain (GST-LXR LBD) (Homo sapiens, UniProt Q13133); experiment: In vitro LXR assay (HTR-FRET, coactivator b-SRC1 recruitment); format: biochemical; conditions: FRET 12-point dose response
# T1 sequence (Q13133 209-447): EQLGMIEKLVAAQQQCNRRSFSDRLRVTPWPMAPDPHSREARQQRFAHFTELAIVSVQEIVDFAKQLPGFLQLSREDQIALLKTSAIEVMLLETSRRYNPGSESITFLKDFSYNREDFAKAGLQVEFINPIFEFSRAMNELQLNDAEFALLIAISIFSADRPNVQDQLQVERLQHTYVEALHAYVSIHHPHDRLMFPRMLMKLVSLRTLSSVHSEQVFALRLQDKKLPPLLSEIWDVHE
# Description: The LXR assay is configured using time-resolved fluorescence resonance energy transfer technology (HTR-FRET) (see Albers M, Blume B, Schlueter T, Wright MB, Kober I, Kremoser C, Deuschle U, Koegl M; “A novel principle for partial agonism of liver X receptor ligands. Competitive recruitment of activators and repressors”. J. Biol. Chem. 2006 24;281(8) 4920-30; and Chin J, Adams A D, Bouffard A, Green A, Lacson R G, Smith T, Fischer P A, Menke J G, Sparrow C P, Mitnaul L J; “Miniaturization of cell-based beta-lactamase-dependent FRET assays to ultra-high throughput formats to identify agonists of human liver X receptors”. Assay Drug Dev. Technol. 2003 1(6):777-87).
# In the presence of an agonist, a fusion protein of glutathione S-transferase (GST) and LXR ligand binding domain (GST-LXR LBD) associates with a biotin-labeled nuclear receptor coactivator (b-SRC1). A fluorescent signal is detected in the presence of Eu-labeled anti GST antibodies and streptavidin-labeled allophycocyanin (APC). FRET is made possible by agonist-dependent close interaction of the test proteins.
# Compounds which act as agonists at the LXR ligand binding domain are detected by an increase in time-resolved fluorescence. This LXR-FRET is performed as described by Albers et al. (loc. cit.).
# FRET-active compounds are assayed in a FRET 12-point dose response experiment to determine the EC50—values of the compounds mentioned in the following table 9: […]
# [2] = molecular target: NPFF2 receptor (Homo sapiens, UniProt Q9Y5X5); conditions: literature report; cited from earlier work
# NPFF2 receptor, sequence (Q9Y5X5 whole entry): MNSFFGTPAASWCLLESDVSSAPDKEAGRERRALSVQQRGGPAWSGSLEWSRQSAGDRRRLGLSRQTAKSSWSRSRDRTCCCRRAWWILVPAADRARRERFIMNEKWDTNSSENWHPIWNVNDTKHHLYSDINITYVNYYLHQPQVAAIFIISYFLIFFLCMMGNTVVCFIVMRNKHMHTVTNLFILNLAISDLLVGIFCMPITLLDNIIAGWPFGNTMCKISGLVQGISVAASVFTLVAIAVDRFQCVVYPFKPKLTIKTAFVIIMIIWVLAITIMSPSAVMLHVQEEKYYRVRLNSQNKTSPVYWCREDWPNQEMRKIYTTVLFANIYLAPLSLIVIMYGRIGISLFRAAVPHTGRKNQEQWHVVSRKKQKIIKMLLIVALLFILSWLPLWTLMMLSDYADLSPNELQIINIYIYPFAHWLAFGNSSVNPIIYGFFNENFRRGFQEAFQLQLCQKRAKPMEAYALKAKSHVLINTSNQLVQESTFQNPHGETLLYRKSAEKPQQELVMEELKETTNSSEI
# [3] = In vivo assay in rats: 8 week feeding study, body weight and body fat; set-up: species or system Sprague-Dawley (SD) rats; conditions: high fat diet, 0.1% in chow, 8 weeks, versus control groups
# Description: The “further enriched extract” of Example 2 (also called IMD-XT0003 above and below), containing the LXRα active compounds is prepared and tested using six week old, none-adult, male Sprague-Dawley (SD) rats (Charles Rivers, Sulzfeld, Germany). The extract is mixed with the chow (ssniff Spezialdiäten GmbH, Soest, Germany) to a final concentration of 0.1% by weight and fed for 8 weeks in two different treatment regimes: • Balanced diet (standardised to 4% fat) • High fat diet (standardised 34% fat) Controls obtain the same diet without IMD-XT0003 or other anti-obesity additives. Body weight is studied and analysed every week, body fat and mineral bone density are analysed by DEXA (scanner, see Example 3) in week 0, in week 4 and at the last day of the study in week 8. Furthermore, the white body fat weight is determined after removal of the tissue at the end of the feeding study in week 8. For the DEXA measurements the same apparatuses and methodology are used as described in example 3. As a control experiment within the high fat diet, epigallocatechin-3-gallate (EGCG, Chengdu Purification Technology Development Co. Ltd, Chengdu, China) in pure form is used as the standard for comparison of potency and differentiation as well as benchmark against competing compounds or formulations against obesity. […]
EC50 [1],Molecule,NPFF2 receptor agonism [2],other results
> 10 µM,"COc1cc2c(c(OC)c1OC)-c1c(cc(OC)c(OC)c1OC)CC(C)C(C)C2 (stereo not shown) [Desoxyschizandrol A, 3,3′,4,4′,5,5′-Hexamethoxy-2,2′-cyclolignan]",–,–
10.6 µM,"COc1cc2c(c(OC)c1OC)-c1c(cc3c(c1OC)OCO3)CC(C)C(C)C2 (stereo not shown) [Gomisin N, 3,3,4,5-Tetramethoxy-4′,5′-methylenedioxy-2,2′-cyclolignan]",–,–
5.6 µM,"COc1c2c(cc3c1-c1c(cc4c(c1OC)OCO4)CC(C)C(C)C3)OCO2 (stereo not shown) [Schizandrin C, 3,3′-Dimethoxy-4,5:4′,5′-bis(methylenedioxy)-2,2′-cyclolignan]",–,–

# The next lines start with the molecule.
Molecule,EC50 [1],NPFF2 receptor agonism [2],other results
COc1cc2c(c(OC)c1OC)-c1c(cc3c(c1OC)OCO3)[C@H](OC(=O)c1ccccc1)[C@@](C)(O)[C@@H](C)C2 [Gomisin G],–,potent NPFF2 receptor agonists,–
COc1cc2c(c(OC)c1OC)-c1c(cc(OC)c(OC)c1OC)[C@H](OC(=O)c1ccccc1)[C@@](C)(O)[C@@H](C)C2 [benzoylgomisin Q],–,potent NPFF2 receptor agonists,–
epigallocatechin-3-gallate [EGCG],–,–,body fat accumulation [3]: No effects; body weight accumulation [3]: No effects
